Patent publication US20230233569A1 (Revolution Medicines, Inc., priority 2020, published 2023)
pIC50: −log10 of the molar value. “And” between values parts separate entries of the source, which are not always exact repeats. Equal entries are not always repeated. Where two headings read alike, the source gives them in different places.

Tests used:
NCI-H358 (K-Ras G12C) = assay: CellTiter-Glo cell viability assay, 5-day treatment; assay type: cell-based; conditions: Homo sapiens, NCI-H358, H358, K-Ras G12C; read-out: Additional H358 Cell Viability assay data (K-Ras G12C, IC50)
Procedure, shortened: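 Seeded cells received test compound by direct dispensing. On day 5 the plates sat at room temperature approximately 30 minutes, then luminescence was measured. Data were normalized to DMSO and curve-fitted with four parameters.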

KRAS G12D = KRAS G12D (Homo sapiens, UniProt P01116+P62937, G12D); assay: Disruption of BRAF RBD interaction with Ras (FRET / MOA assay, with Cyclophilin A); assay type: biochemical; conditions: read-out: KRAS G12D FRET data, IC50
Sequence of KRAS G12D (P01116 1-169 isoform P01116-2 G12D limits assumed): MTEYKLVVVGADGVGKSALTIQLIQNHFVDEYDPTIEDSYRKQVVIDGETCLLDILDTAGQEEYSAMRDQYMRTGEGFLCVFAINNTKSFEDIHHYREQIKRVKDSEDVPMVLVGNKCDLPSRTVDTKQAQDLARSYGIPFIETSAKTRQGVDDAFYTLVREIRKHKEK
Sequence of KRAS G12D (P62937 whole entry): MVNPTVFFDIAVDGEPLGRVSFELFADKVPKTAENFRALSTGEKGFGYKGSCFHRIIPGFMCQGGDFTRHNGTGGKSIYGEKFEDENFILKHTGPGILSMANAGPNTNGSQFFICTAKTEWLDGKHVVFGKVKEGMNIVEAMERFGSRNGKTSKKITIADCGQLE
Procedure, shortened: (§1)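 TR-FRET readout: a drop in ratio relative to DMSO wells marks disruption of the K-Ras:BRAF RBD complex via compound-induced K-Ras–Cyclophilin A ternary complex. Dosing used ten 3-fold steps from 30 μM final, 3 h at 25 °C, then Eu-anti-His 10 nM plus APC-anti-GST 50 nM for another 1.5 h. Values are IC50s.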

KRAS G12V = KRAS G12V (Homo sapiens, UniProt P01116+P62937, G12V); assay: as above; assay type: biochemical
Sequence of KRAS G12V (P01116 1-169 isoform P01116-2 G12V limits assumed): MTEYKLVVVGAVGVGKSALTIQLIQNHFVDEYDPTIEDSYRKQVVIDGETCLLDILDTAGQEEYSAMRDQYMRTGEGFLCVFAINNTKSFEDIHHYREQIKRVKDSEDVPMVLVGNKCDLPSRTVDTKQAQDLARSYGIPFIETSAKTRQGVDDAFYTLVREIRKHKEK
Sequence of KRAS G12V (P62937 whole entry): as the sequence (P62937 whole entry) above
Procedure, shortened: as §1

KRAS G12C = KRAS G12C (Homo sapiens, UniProt P01116+P62937, G12C); assay: as above; assay type: biochemical
Sequence of KRAS G12C (P01116 1-169 isoform P01116-2 G12C): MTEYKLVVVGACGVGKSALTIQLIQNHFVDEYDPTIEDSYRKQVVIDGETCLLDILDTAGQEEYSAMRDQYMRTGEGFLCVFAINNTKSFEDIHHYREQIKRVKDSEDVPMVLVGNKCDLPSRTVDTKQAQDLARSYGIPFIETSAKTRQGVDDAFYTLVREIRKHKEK
Sequence of KRAS G12C (P62937 whole entry): as the sequence (P62937 whole entry) above
Procedure, shortened: as §1

KRAS G12S = KRAS G12S (Homo sapiens, UniProt P01116+P62937, G12S); assay: as above; assay type: biochemical
Sequence of KRAS G12S (P01116 1-169 isoform P01116-2 G12S limits assumed): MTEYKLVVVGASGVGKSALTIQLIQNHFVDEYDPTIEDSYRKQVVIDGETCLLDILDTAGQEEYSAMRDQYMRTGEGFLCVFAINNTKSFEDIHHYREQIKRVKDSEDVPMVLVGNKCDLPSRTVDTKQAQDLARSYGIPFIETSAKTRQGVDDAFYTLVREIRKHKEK
Sequence of KRAS G12S (P62937 whole entry): as the sequence (P62937 whole entry) above
Procedure, shortened: as §1

KRAS WT = KRAS WT (Homo sapiens, UniProt P01116+P62937); assay: as above; assay type: biochemical
Sequence of KRAS WT (P01116 1-169 isoform P01116-2 limits assumed): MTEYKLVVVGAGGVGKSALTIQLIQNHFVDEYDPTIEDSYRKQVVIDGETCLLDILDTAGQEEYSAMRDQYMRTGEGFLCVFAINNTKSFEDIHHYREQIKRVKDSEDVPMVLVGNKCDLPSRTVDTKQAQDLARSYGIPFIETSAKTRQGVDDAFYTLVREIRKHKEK
Sequence of KRAS WT (P62937 whole entry): as the sequence (P62937 whole entry) above
Procedure, shortened: as §1

KRAS G13D = KRAS G13D (Homo sapiens, UniProt P01116+P62937, G13D); assay: as above; assay type: biochemical
Sequence of KRAS G13D (P01116 1-169 isoform P01116-2 G13D limits assumed): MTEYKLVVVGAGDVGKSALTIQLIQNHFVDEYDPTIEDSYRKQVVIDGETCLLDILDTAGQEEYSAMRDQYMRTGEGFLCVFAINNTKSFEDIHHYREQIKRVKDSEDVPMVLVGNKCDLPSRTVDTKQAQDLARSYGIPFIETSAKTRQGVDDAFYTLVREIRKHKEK
Sequence of KRAS G13D (P62937 whole entry): as the sequence (P62937 whole entry) above
Procedure, shortened: as §1

KRAS G13C = KRAS G13C (Homo sapiens, UniProt P01116+P62937, G13C); assay: as above; assay type: biochemical; conditions: KRAS G13C; read-out: KRAS G13C FRET data IC50
Sequence of KRAS G13C (P01116 1-169 isoform P01116-2 G13C): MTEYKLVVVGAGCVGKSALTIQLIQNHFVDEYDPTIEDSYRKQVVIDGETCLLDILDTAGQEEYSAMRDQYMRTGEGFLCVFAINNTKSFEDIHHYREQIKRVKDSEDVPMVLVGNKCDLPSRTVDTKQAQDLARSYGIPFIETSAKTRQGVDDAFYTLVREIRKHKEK
Sequence of KRAS G13C (P62937 whole entry): as the sequence (P62937 whole entry) above
Procedure, shortened: as §1

NRAS G12C = NRAS G12C (Homo sapiens, UniProt P01111+P62937, G12C); assay: as above; assay type: biochemical
Sequence of NRAS G12C (P01111 whole entry G12C): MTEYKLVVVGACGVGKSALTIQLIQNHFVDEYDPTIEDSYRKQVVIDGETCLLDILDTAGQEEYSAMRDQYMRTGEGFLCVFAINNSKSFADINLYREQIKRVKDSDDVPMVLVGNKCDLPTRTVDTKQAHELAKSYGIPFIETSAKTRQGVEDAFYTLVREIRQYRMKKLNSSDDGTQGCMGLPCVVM
Sequence of NRAS G12C (P62937 whole entry): as the sequence (P62937 whole entry) above

[1] = KRAS G12V, read-out: KRAS G12V FRET data IC50
[2] = KRAS G12C, read-out: KRAS G12C FRET data IC50
[3] = read-out: KRAS G12S FRET data, IC50
[4] = KRAS WT, read-out: KRAS WT FRET data IC50
[5] = KRAS G13D, read-out: KRAS G13D FRET data IC50
[6] = NRAS G12C, read-out: NRAS G12C FRET data IC50

SMILES	pIC50 (NCI-H358 (K-Ras G12C))	pIC50 (KRAS G12D)	pIC50 (KRAS G12V; [1])	pIC50 (KRAS G12C; [2])	pIC50 (KRAS G12S; [3])	pIC50 (KRAS WT; [4])	pIC50 (KRAS G13D; [5])	pIC50 (KRAS G13C)	pIC50 (NRAS G12C; [6])	IC50 (KRAS G12V; [1])	IC50 (KRAS G12S; [3])	pIC50 (KRAS G12V; KRAS G12V FRET data IC50, KRAS G12V)	pIC50 (KRAS G12C; KRAS G12C FRET data IC50, KRAS G12C)	pIC50 (KRAS G12S; KRAS G12S FRET data, IC50)	pIC50 (KRAS WT; KRAS WT FRET data IC50, KRAS WT)	pIC50 (KRAS G13D; KRAS G13D FRET data IC50, KRAS G13D)	pIC50 (NRAS G12C; NRAS G12C FRET data IC50, NRAS G12C)	IC50 (KRAS G12C; [2])	IC50 (NRAS G12C; [6])
C=CC(=O)N1CC[C@H](C(=O)N(C)[C@H](C(=O)N[C@H]2Cc3cc(O)cc(c3)-c3ccc4c(c3)c(c(-c3cccnc3)n4C3CC3)CC(C)(C)COC(=O)[C@@H]3CCCN(N3)C2=O)C(C)C)C1 [Example A160]	6.00 to 7.00	< 5.00	< 5.00	6.00 to 7.00	< 5.00	< 5.00	< 5.00	< 5.00	5.00 to 6.00										
C=CC(=O)N1CC[C@H](C(=O)N(C)[C@H](C(=O)N[C@H]2Cc3cc(O)cc(c3)-c3ccc4c(c3)c(c(-c3cc(C)cnc3[C@H](C)OC)n4CC)CC(C)(C)COC(=O)[C@@H]3CCCN(N3)C2=O)C(C)C)C1 [Example A167]	7.00 to 8.00	< 5.00 and 6.00 to 7.00	5.00 to 6.00		5.00 to 6.00	5.00 to 6.00		5.00 to 6.00 and 7.00 to 8.00				7.00 to 8.00	6.00 to 7.00 and > 8.00	7.00 to 8.00	7.00 to 8.00	6.00 to 7.00 and < 5.00	6.00 to 7.00 and > 8.00		
CC#CC(=O)N1CC[C@H](C(=O)N(C)[C@H](C(=O)N[C@H]2Cc3nc(cs3)-c3ccc4c(c3)c(c(-c3cccnc3[C@H](C)OC)n4CC)CC(C)(C)COC(=O)[C@@H]3CCCN(N3)C2=O)C(C)C)C1 [Example A168]	7.00 to 8.00	< 5.00	5.00 to 6.00	6.00 to 7.00	5.00 to 6.00	5.00 to 6.00	< 5.00	5.00 to 6.00	5.00 to 6.00										
C=CC(=O)N1CC[C@H](C(=O)N(C)[C@H](C(=O)N[C@H]2Cc3cc(O)cc(c3)-c3ccc4c(c3)c(c(-c3ccnc5c3[C@@H](OC)CC5)n4CC)CC(C)(C)COC(=O)[C@@H]3CCCN(N3)C2=O)C(C)C)C1 [Example A275]	> 8.00	6.00 to 7.00	7.00 to 8.00	7.00 to 8.00	7.00 to 8.00	6.00 to 7.00	6.00 to 7.00	7.00 to 8.00	7.00 to 8.00										
CCn1c(-c2cccnc2[C@H](C)OC)c2c3cc(ccc31)N1CCO[C@@H](C[C@H](NC(=O)[C@H](C(C)C)N(C)C(=O)[C@@]3(F)CCN(C(=O)C#CC(C)(C)N4CCC4)C3)C(=O)N3CCC[C@H](N3)C(=O)OCC(C)(C)C2)C1 [Example A726]	> 8.00	< 5.00	5.00 to 6.00		5.00 to 6.00	5.00 to 6.00		6.00 to 7.00	7.00 to 8.00										

Now from value to compound, other results behind:

pIC50 (NCI-H358 (K-Ras G12C))	pIC50 (KRAS G12D)	pIC50 (KRAS G12V; [1])	pIC50 (KRAS G12C; [2])	pIC50 (KRAS G12S; [3])	pIC50 (KRAS WT; [4])	pIC50 (KRAS G13D; [5])	pIC50 (KRAS G13C)	pIC50 (NRAS G12C; [6])	IC50 (KRAS G12V; [1])	IC50 (KRAS G12S; [3])	SMILES	pIC50 (KRAS G12V; KRAS G12V FRET data IC50, KRAS G12V)	pIC50 (KRAS G12C; KRAS G12C FRET data IC50, KRAS G12C)	pIC50 (KRAS G12S; KRAS G12S FRET data, IC50)	pIC50 (KRAS WT; KRAS WT FRET data IC50, KRAS WT)	pIC50 (KRAS G13D; KRAS G13D FRET data IC50, KRAS G13D)	pIC50 (NRAS G12C; NRAS G12C FRET data IC50, NRAS G12C)	IC50 (KRAS G12C; [2])	IC50 (NRAS G12C; [6])
6.00 to 7.00	< 5.00	< 5.00	5.00 to 6.00	< 5.00	< 5.00	< 5.00	5.00 to 6.00	5.00 to 6.00			C=CS(=O)(=O)N1CC[C@H](C(=O)N(C)[C@H](C(=O)N[C@H]2Cc3nc(cs3)-c3ccc4c(c3)c(c(-c3cncnc3)n4CC)CC(C)(C)COC(=O)[C@@H]3CCCN(N3)C2=O)C(C)C)C1 [Example A170]								
	< 5.00				< 5.00	< 5.00	< 5.00		1 µM to 10 µM and > 10 µM (3×)	1 µM to 10 µM and > 10 µM (3×)	C=CC(=O)N1CC[C@H](C(=O)N(C)[C@H](C(=O)N[C@H]2Cc3cc(O)cc(c3)-c3cnc4c(c3)c(c(-c3ccccc3CCOC)n4CC)CC(C)(C)COC(=O)[C@@H]3CCCN(N3)C2=O)C(C)C)C1 [Example A210]							100 nM to 1 µM and 1 µM to 10 µM and > 10 µM (2×)	100 nM to 1 µM and 1 µM to 10 µM and > 10 µM (2×)
7.00 to 8.00	6.00 to 7.00	6.00 to 7.00	7.00 to 8.00	6.00 to 7.00	6.00 to 7.00	6.00 to 7.00	6.00 to 7.00	7.00 to 8.00			C=CC(=O)N1CC[C@@H](N(C)C(=O)N(C)[C@H](C(=O)N[C@H]2Cc3nc(cs3)-c3ccc4c(c3)c(c(-c3cccnc3[C@H](C)OC)n4CC)CC(C)(C)COC(=O)[C@@H]3CCCN(N3)C2=O)C(C)C)C1 [Example A349]								
> 8.00			7.00 to 8.00			6.00 to 7.00		7.00 to 8.00			C=CC(=O)N(C)C1CCN(C(=O)N(C)[C@H](C(=O)N[C@H]2Cc3nc(cs3)-c3ccc4c(c3)c(c(-c3cccnc3[C@H](C)OC)n4CC)CC(C)(C)COC(=O)[C@@H]3CCCN(N3)C2=O)C(C)C)C1 (stereo partly shown) [Example A384]								
